“And” between values parts separate entries of the source, which are not always exact repeats. Identical values can stand only once.
Test system: OVCAR-5 complex spheroid (HUVEC/MSC), viability % T/C
Test: Anticancer human tumor OVCAR-5 cell line growth inhibition [Asc];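 also: spheroids exposed to agents for 7 days before readout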;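 as to viability, T/C: 100% = DMSO vehicle-treated wells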
Conditions: for viability, T/C: stronger effect = lower value
Procedure, shortened: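 Stromal components (HUVEC and hMSC) are co-assembled with the cancer cells into multicellular spheroids. Drugs are then added singly or paired, at concentrations falling by half-log increments from a clinically achievable maximum, capped at 10 microM without known Cmax.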

SMILES: COc1c(OCCCN2CCOCC2)ccc2c3n(c(=NC(=O)c4cnc(N)nc4)nc12)CCN3 + CCN1C(C(=O)NC23CCC(C(=O)O)(CC2)CC3)C(c2cccc(Cl)c2F)C2(C(=O)Nc3cc(Cl)ccc32)C12CCCCC2
- IC50 (curve of first compound, second compound 0.03 µM): 36.4 nM
- IC50 (curve of first compound, second compound 0.0949 µM): 29.5 nM
- IC50 (curve of first compound, second compound 0.3 µM): 44.4 nM
- IC50 (curve of first compound, second compound 0.949 µM): 38.1 nM
- IC50 (curve of first compound, second compound 3 µM): 34.1 nM
- viability, T/C (second compound 0.03 µM, first compound 0.00316 µM): 82.4%
- viability, T/C (second compound 0.03 µM, first compound 0.01 µM): 79.6%
- viability, T/C (second compound 0.03 µM, first compound 0.0316 µM): 49.8%
- viability, T/C (second compound 0.03 µM, first compound 0.1 µM): 29.9%
- viability, T/C (second compound 0.03 µM, first compound 0.316 µM): 20%
- viability, T/C (second compound 0.03 µM, first compound 1 µM): 11.9%
- viability, T/C (second compound 0.0949 µM, first compound 0.00316 µM): 91.6%
- viability, T/C (second compound 0.0949 µM, first compound 0.01 µM): 75.8%
- viability, T/C (second compound 0.0949 µM, first compound 0.0316 µM): 46.3%
- viability, T/C (second compound 0.0949 µM, first compound 0.1 µM): 28.1%
- viability, T/C (second compound 0.0949 µM, first compound 0.316 µM): 17.8%
- viability, T/C (second compound 0.0949 µM, first compound 1 µM): 9.62%
- viability, T/C (second compound 0.3 µM, first compound 0.00316 µM): 87.8%
- viability, T/C (second compound 0.3 µM, first compound 0.01 µM): 82.3%
- viability, T/C (second compound 0.3 µM, first compound 0.0316 µM): 56.6%
- viability, T/C (second compound 0.3 µM, first compound 0.1 µM): 31.1%
- viability, T/C (second compound 0.3 µM, first compound 0.316 µM): 17.8%
- viability, T/C (second compound 0.3 µM, first compound 1 µM): 10.5%
- viability, T/C (second compound 0.949 µM, first compound 0.00316 µM): 79.4%
- viability, T/C (second compound 0.949 µM, first compound 0.01 µM): 75.1%
- viability, T/C (second compound 0.949 µM, first compound 0.0316 µM): 54.8%
- viability, T/C (second compound 0.949 µM, first compound 0.1 µM): 24.8%
- viability, T/C (second compound 0.949 µM, first compound 0.316 µM): 17.3%
- viability, T/C (second compound 0.949 µM, first compound 1 µM): 8.43%
- viability, T/C (second compound 3 µM, first compound 0.00316 µM): 89.7%
- viability, T/C (second compound 3 µM, first compound 0.01 µM): 83.9%
- viability, T/C (second compound 3 µM, first compound 0.0316 µM): 51%
- viability, T/C (second compound 3 µM, first compound 0.1 µM): 22%
- viability, T/C (second compound 3 µM, first compound 0.316 µM): 15.2%
- viability, T/C (second compound 3 µM, first compound 1 µM): 8.71%

SMILES: C=CC(=O)N1CCN(c2nc(=O)n(-c3c(C)ccnc3C(C)C)c3nc(-c4c(O)cccc4F)c(F)cc23)C(C)C1 (configuration not stated) + Cc1c(S(C)(=O)=O)c(-c2cc(F)cc(N3CCN(c4ccc(NS(=O)(=O)c5ccc(NC(CCN6CCC(C(=O)OCCCP(=O)(O)O)CC6)CSc6ccccc6)c(S(=O)(=O)C(F)(F)F)c5)cc4)CC3)c2)c(-c2ccc(Cl)cc2)n1C(C)C
- IC50 (curve of first compound, second compound 0.1 µM): > 10000 nM
- IC50 (curve of first compound, second compound 0.316 µM): > 10000 nM
- IC50 (curve of first compound, second compound 1 µM): > 10000 nM
- IC50 (curve of first compound, second compound 3.16 µM): > 10000 nM
- IC50 (curve of first compound, second compound 10 µM): > 10000 nM
- viability, T/C (second compound 0.1 µM, first compound 0.0316 µM): 100%
- viability, T/C (second compound 0.1 µM, first compound 0.1 µM): 109%
- viability, T/C (second compound 0.1 µM, first compound 0.316 µM): 98.7%
- viability, T/C (second compound 0.1 µM, first compound 1 µM): 111%
- viability, T/C (second compound 0.1 µM, first compound 3.16 µM): 114%
- viability, T/C (second compound 0.1 µM, first compound 10 µM): 97.5%
- viability, T/C (second compound 0.316 µM, first compound 0.0316 µM): 93.4%
- viability, T/C (second compound 0.316 µM, first compound 0.1 µM): 103%
- viability, T/C (second compound 0.316 µM, first compound 0.316 µM): 95.5%
- viability, T/C (second compound 0.316 µM, first compound 1 µM): 96.9%
- viability, T/C (second compound 0.316 µM, first compound 3.16 µM): 112%
- viability, T/C (second compound 0.316 µM, first compound 10 µM): 102%
- viability, T/C (second compound 1 µM, first compound 0.0316 µM): 89.8%
- viability, T/C (second compound 1 µM, first compound 0.1 µM): 101%
- viability, T/C (second compound 1 µM, first compound 0.316 µM): 111%
- viability, T/C (second compound 1 µM, first compound 1 µM): 98.2%
- viability, T/C (second compound 1 µM, first compound 3.16 µM): 97.5%
- viability, T/C (second compound 1 µM, first compound 10 µM): 106%
- viability, T/C (second compound 3.16 µM, first compound 0.0316 µM): 95.4%
- viability, T/C (second compound 3.16 µM, first compound 0.1 µM): 102%
- viability, T/C (second compound 3.16 µM, first compound 0.316 µM): 109%
- viability, T/C (second compound 3.16 µM, first compound 1 µM): 103%
- viability, T/C (second compound 3.16 µM, first compound 3.16 µM): 108%
- viability, T/C (second compound 3.16 µM, first compound 10 µM): 98.1%
- viability, T/C (second compound 10 µM, first compound 0.0316 µM): 119%
- viability, T/C (second compound 10 µM, first compound 0.1 µM): 136%
- viability, T/C (second compound 10 µM, first compound 0.316 µM): 142%
- viability, T/C (second compound 10 µM, first compound 1 µM): 139%
- viability, T/C (second compound 10 µM, first compound 3.16 µM): 144%
- viability, T/C (second compound 10 µM, first compound 10 µM): 145%

SMILES: Cc1nc(N2CCC3(CC2)COC(C)C3N)c(CO)nc1Sc1ccnc(N)c1Cl (configuration not stated)
- viability, T/C (compound 0.00949 µM): 109% and 97.2% and 107%
- viability, T/C (compound 0.03 µM): 99.2% and 97.7% and 99.4%
- viability, T/C (compound 0.0949 µM): 84.9% and 85.5% and 83.2%
- viability, T/C (compound 0.3 µM): 84.3% and 72.2% and 87.1%
- viability, T/C (compound 0.949 µM): 77.6% and 64.7% and 77.7%
- viability, T/C (compound 3 µM): 62% and 60.2% and 56.3%
- IC50 (curve of compound): > 3000 nM

Reference: PubChem BioAssay AID1963436 (Molecular Pharmacology Branch, DTP, NCI, 2024)
